Measurements taken from patent publication US12459973B2, “Peptide compounds for reducing side effects of CB1 receptor agonists” (priority 2019, dated 2025).
Non-standard residues stand in square brackets, D forms with d. Residues, ends and D or L forms follow the SMILES beside them. No end group written: not given here.

Key:
[1] = Hot plate test (analgesic effect); assay type: in vivo; conditions: Vehicle (IV) + THC 10 mg/kg IP, hot plate 52° C., mice
Procedure: The method described in “Monory K, Blaudzun H, Massa F, Kaiser N, Lemberger T, Schütz G, Wotjak C T, Lutz B*, Marsicano G*. Genetic Dissection of Behavioural and Autonomic Effects of D9-tetrahydrocannabinol in Mice. PLoS Biology, 5(10): e269, 2007” was used with the slight modifications herein described to assess the analgesic effect of the peptides.
THC-induced analgesia was measured using a hot plate analgesia meter (Hot/Cold Plate Test, Bioseb, USA) 60 min after intraperitoneal injection (IP) of THC dissolved in an IP vehicle (5% v/v of ethanol, 5% v/v of Cremophor-EL and 90% v/v saline) or injection of the vehicle (saline plus 2% DMSO) alone and by intravenous injection 90 min after the first injection of the peptide to be tested in an IV vehicle or of the vehicle alone. […] A cut-off time of 240 s was set to prevent tissue damage.

[2] = Novel object recognition test (memory); assay type: in vivo; conditions: Vehicle (IV) + THC 3 mg/kg IP, mice
Procedure: The method described in “Puighermanal E, Marsicano G, Busquets-Garcia A, Lutz B, Maldonado R, Ozaita A. Cannabinoid modulation of hippocampal long-term memory is mediated by mTOR signaling. Nature Neuroscience, 12(9): 1152-8 (2009)” was used with the slight modifications herein described to assess the effect of the peptides on memory.
On day 1 (Habituation), mice were habituated for 9 min to the V-maze in which the task was performed. On the second day (Training), mice were put back in the V-maze for 9 min, two identical objects were presented and the time that the mice spent exploring each object was recorded. The mice were again placed in the maze 24 h later for 9 min (Test), one of the familiar objects was replaced with a novel object and the total time spent exploring each of the two objects (novel and familiar) was computed. Object exploration was defined as the orientation of the nose to the object at less than 2 cm. A discrimination index was calculated as the difference between the times spent exploring the novel or familiar object divided by the total time exploring the two objects. A higher discrimination index is considered to reflect greater memory retention for the familiar object as normal mice spend more time exploring a novel object than a familiar one. […]

[3] = target: T1, CB1R and 5-HT2AR heteromers (Homo sapiens, UniProt P28223); assay: Disruption of CB1R and 5-HT2AR heteromers by bimolecular fluorescence complementation; assay type: cell-based; conditions: HEK-293T, CB1R-nYFP + 5-HT2AR-cYFP, peptide 4 μM, 4 h, 37° C.
T1 construct: expressed in transfected cells; host or cells: HEK-293T
From the text: The method described in “Viñals* X, Moreno* E, Lanfumey L, Cordomi A, Pastor A, de La Torre R, Gasperini P, Navarro G, Howell L A, Pardo L, Lluís C, Canela El, McCormick* P J, Maldonado* R, Robledo* P. Cognitive Impairment Induced by Delta9-tetrahydrocannabinol Occurs through Heteromers between Cannabinoid CB1 and Serotonin 5-HT2A Receptors. PLoS Biology, 13(7): e1002194 (2015)” was used with the slight modifications herein described herein to determine the in vitro capacity of the peptides to disrupt CB1R and 5-HT2AR heteromers.
To obtain the YFP Venus hemi-truncated proteins fused to the receptors of interest (5-HT2AR-cYFP, CB1R-nYFP), 5-HT2AR was subcloned to be in-frame with restriction sites of pcDNA3.1-cVenus, which contained the sequences encoding amino acid residues 156-238 of YFP Venus protein. Moreover, CB1R was subcloned to be in-frame with restriction sites of pcDNA3.1-nVenus, which contained the sequences encoding amino acid residues 1-155 of YFP Venus protein.
Expression of constructs was tested by confocal microscopy and the receptor fusion protein functionality by ERK1/2 phosphorylation.
Human embryonic kidney (HEK-293T) cells obtained from ATCC were grown in Dulbecco's modified Eagle's medium (DMEM) (Gibco) supplemented with 2 mM L-glutamine, 100 μg/ml sodium pyruvate, 100 U/ml penicillin/streptomycin, MEM Non-Essential Amino Acids Solution (1/100), and 5% (v/v) heat inactivated fetal bovine serum (FBS) (all supplements were from Invitrogen, Paisley, Scotland, UK). Cells were maintained at 37° C. in an atmosphere of 5% CO2.
Cells growing in 6-well dishes were transiently transfected with the cDNA encoding for CB1R fused to the YFP Venus N-terminal fragment (n-YFP) and 5-HT2AR fused to the YFP Venus C-terminal fragment (c-YFP) by the PEI (PolyEthylenlmine, Sigma) method. Cells were incubated 4 h with the corresponding cDNA together with PEI and 150 mM NaCl in a serum-starved medium. After 4 h, the medium was changed to a fresh complete culture medium.
After 48 h, cells were treated or not with the indicated TAT-peptides (4 μM) for 4 h at 37° C. To quantify the complemented YFP Venus expression, cells were washed twice in quick succession in HBSS with 10 mM glucose, detached, and resuspended in the same buffer. To control the cell number, sample protein concentration was determined using a Bradford assay kit (Bio-Rad, Munich, Germany) using bovine serum albumin dilutions as standards. 20 μg protein were distributed into 96-well microplates (black plates with a transparent bottom, Porvair, King's Lynn, UK), and fluorescence emission at 530 nm after the excitation at 500 nm with a Mithras LB940 (Berthold Technologies, Bad Wildbad, Germany) was recorded. Protein fluorescence was determined as fluorescence of the sample minus the fluorescence of untransfected cells (basal).

bEnd.3 cells = assay: in vitro; conditions: bEnd.3, 24 h, 0.01-50 μM
Procedure: (§1) bEnd.3 brain endothelioma cells (ATCC® CRL-2299TM) were grown as a monolayer on 75 cm^2 T-flasks in DMEM supplemented with 10% fetal bovine serum (FBS), and 1% penicillin/streptomycin antibiotic solution (Gibco™, USA). Cells were cultured in a humidified atmosphere of 95% air and 5% CO2 at 37° C. (MCO-18AIC (UV), Sanyo, Japan), with the medium changed every other day. The cells were harvested from cell culture T-flasks when confluent with trypsin-EDTA (Gibco™, USA) and used in different assays (cell proliferation, in vitro BBB translocation and in vitro Bimolecular Fluorescence complementation).
(§2) The in vitro cytotoxicity of the compound to be evaluated is studied using the same cell line of the in vitro BBB model, namely bEnd.3 cells, to evaluate possible toxicity. bEnd.3 cell line was exposed to increasing concentrations of the compound for 24 h.
(§3) The assay is based on the ability of viable cells to reduce resazurin into resorufin, a highly fluorescent metabolite. Non-viable cells are not able to generate resorufin.
(§4) Therefore, using this approach is possible to distinguish between metabolic and non-metabolic cells, and indirectly to determine the cytotoxicity of different compounds. bEnd.3 cells were seeded onto a 96-well plate (Corning, USA) at 10,000 cells/100 μL/well and incubated for 24 h. After medium removal, 100 μL of previous diluted peptides (range between 0.01-50 μM) in DMEM medium were added to the wells. After 24 h incubation, 20 μL of CellTiter-Blue® Reagent was added to each well and incubated for 3 h in a humidified atmosphere of 5% CO2 at 37° C. The fluorescence intensity was measured with an λexc=560 nm and an λem=590 nm using an Infinite F200 TECAN plate reader. Medium and 1% Triton X-100-containing medium were used as positive controls (100% cell viability) and negative controls (0% cell viability), respectively. Cell viability (%) was determined using the following equation:
(§5) [formula] where Fp is the fluorescence intensity of peptide-treated cells, FNC is the fluorescence intensity for negative controls, and FPC is the fluorescence intensity for positive controls.
(§6) Experiments were performed on different days using independently grown cell cultures.

in vitro = conditions: mouse, bEnd.3 brain endothelioma cells
Procedure: as §1, §2, §3, §4, §5, §6

trypsin [4] = assay: in vitro; conditions: pH 8.2
Procedure: (§7) A 1000 μg/1000 μL trypsin solution (Thermo Fisher Scientific) was prepared by suspending the lyophilized enzyme in 50 mM ammonium bicarbonate buffer, pH 8.2. Peptide dissolved in the same buffer (1 μg/L) was incubated with trypsin (peptide:trypsin ratio=100:1) for 24 h at 37° C. Samples were collected at various time points and digestion was stopped by addition of 20% (v/v) of 0.5% formic acid in H2O. Samples were stored at −20° C. until analyzed by reverse-phase HPLC-MS. Experiments are performed in duplicate and data were fit with GraphPad Prism.

trypsin [5] = conditions: peptide remaining by HPLC, incubation with trypsin 100:1, 37° C.
Procedure: as §7

T1 sequence (P28223 whole entry, one chain of several): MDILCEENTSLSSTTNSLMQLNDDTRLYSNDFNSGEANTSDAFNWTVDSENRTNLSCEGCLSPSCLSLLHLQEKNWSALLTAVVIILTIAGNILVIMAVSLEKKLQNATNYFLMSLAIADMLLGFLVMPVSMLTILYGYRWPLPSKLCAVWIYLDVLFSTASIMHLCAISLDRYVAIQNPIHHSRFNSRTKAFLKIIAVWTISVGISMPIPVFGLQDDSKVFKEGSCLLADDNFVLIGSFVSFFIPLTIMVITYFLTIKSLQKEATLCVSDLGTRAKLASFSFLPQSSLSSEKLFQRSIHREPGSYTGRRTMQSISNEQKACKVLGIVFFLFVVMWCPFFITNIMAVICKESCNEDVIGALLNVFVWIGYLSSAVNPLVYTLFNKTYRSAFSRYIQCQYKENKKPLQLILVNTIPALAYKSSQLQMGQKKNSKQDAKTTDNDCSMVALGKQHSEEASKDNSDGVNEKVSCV

CCCCCc1cc(O)c2c(c1)OC(C)(C)[C@@H]1CCC(C)=C[C@@H]21 [THC, Δ9-tetrahydrocannabinol]
Jumping latency % increase vs control [1]: 71.4% | Licking latency % increase vs control [1]: 104.2% | Discrimination index % increase vs. control [2]: −52%

Glu-Thr-Tyr-Leu-Met-Phe-Trp-Ile-Gly-Val-Thr-Ser-Val-Leu-Leu-Leu-Phe-Ile-Val-Tyr-Ala-Tyr-Met-Tyr-Ile-Leu-Trp-Gly-Arg-Lys-Lys-Arg-Arg-Gln-Arg-Arg-Arg-NH2 (ETYLMFWIGVTSVLLLFIVYAYMYILWGRKKRRQRRR-NH2) [Reference Example 1]
% vs. control (bimolecular fluorescence complementation) [3]: 52.2% | Fluorescense units (bimolecular fluorescence complementation) [3]: 11154 fluorescence units

VYAYMYILW[dA]G[dI][dL][dK][dR][dW]-NH2 [Reference Example 2]
% vs. control (bimolecular fluorescence complementation) [3]: 63.5% | Fluorescense units (bimolecular fluorescence complementation) [3]: 13568 fluorescence units

[dW][dL][dI][dY][dM][dA]G[dI][dL][dK][dR][dW]-NH2 [Reference Example 3]
% vs. control (bimolecular fluorescence complementation) [3]: 78.5% | Fluorescense units (bimolecular fluorescence complementation) [3]: 16754 fluorescence units

CC[C@@H](C)[C@@H](NC(=O)CNC(=O)[C@@H](C)NC(=O)[C@H](NC(=O)[C@@H](Cc1ccc(O)cc1)NC(=O)[C@@H](C)NC(=O)[C@@H](Cc1ccc(O)cc1)NC(=O)[C@@H](CCSC)NC(=O)[C@@H](Cc1ccc(O)cc1)NC(=O)[C@H](NC(=O)[C@@H](CC(C)C)NC(=O)[C@H](N)Cc1c[nH]c2ccccc12)[C@H](C)CC)C(C)C)C(=O)N[C@H](CC(C)C)C(=O)N[C@H](CCCCN)C(=O)N[C@H](CCCNC(=N)N)C(=O)N[C@H](Cc1c[nH]c2ccccc12)C(N)=O [Example 1, D-Trp-D-Leu-D-Ile-D-Tyr-D-Met-D-Tyr-D-Ala-D-Tyr-D-Val-D-Ala-Gly-D-Ile-D-Leu-D-Lys-D-Arg-D-Trp-NH2] (H-[dW][dL][dI][dY][dM][dY][dA][dY][dV][dA]G[dI][dL][dK][dR][dW]-NH2)
toxicity (in words) (bEnd.3 cells): no significant toxicity | EC50 at 24 h (in vitro): > 50 µM | viability at 24 h, 0.012 µM (in vitro): 98.3% | viability at 24 h, 0.024 µM (in vitro): 98.3% | viability at 24 h, 0.049 µM (in vitro): 98.7% | viability at 24 h, 0.1 µM (in vitro): 95.4% | viability at 24 h, 0.2 µM (in vitro): 100% | viability at 24 h, 0.39 µM (in vitro): 102% | viability at 24 h, 0.78 µM (in vitro): 98.9% | viability at 24 h, 1.56 µM (in vitro): 102% | viability at 24 h, 3.12 µM (in vitro): 100% | viability at 24 h, 6.25 µM (in vitro): 96.6% | viability at 24 h, 12.5 µM (in vitro): 104% | viability at 24 h, 25 µM (in vitro): 96.6% | viability at 24 h, 50 µM (in vitro): 75.7% | remaining at 24 h, 1 μg/L (trypsin [4]): 83 ± 4.04% | % at t = 24 h (trypsin [5]; pH 8.2, 24 h): over 80% | % at t = 0 (trypsin [5]; pH 8.2, t = 0): 100.00 ± 2.05% | % vs. control (bimolecular fluorescence complementation) [3]: 49.8%
